The results in this text go back to patent US10195185B2, “3-(1H-imidazo[4,5-C]pyridin-2-yl)-1H-pyrazolo[4,3-B]pyridines and therapeutic uses thereof” (Samumed, LLC, priority 2015, dated 2019).

Test [1] has as its system Primary human fibroblasts derived from IPF patients (LL29 cells) treated with TGF-β1. Kind of test: Inhibition of the fibrotic process: αSMA staining in TGF-β1 treated fibroblasts. In kind it is cell-based. As to conditions: Fibroblast, 96 h, LL29 fibroblasts treated with TGF-β1, 4 days; for inhibition at 10 µM: read-out: percent inhibition in brackets beside EC50 >10 μM. The method in brief:
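LL29 IPF-patient lung fibroblasts in 1% FBS F12 were given compounds (11-point, 10 μM to […], 0.1% DMSO) plus TGF-β1 20 ng/mL for 4 days at 37 °C. αSMA-positive fraction of live (SYTOX-negative) cells was imaged and normalized to TGF-β1/DMSO wells. EC50 by non-linear regression, or % inhibition at 10 μM if >10 μM.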

In test [2] the test system is IL-6 in human monocyte cell line (THP-1 cells). The experiment in a line: IL-6 inhibition in LPS-stimulated THP-1 cells (HTRF). As to conditions: IL-6 in LPS-stimulated THP-1 cells; for EC50: HTRF; for inhibition at 10 µM: read-out: percent inhibition in brackets beside EC50 >10 μM. Type of test: cell-based. The method in brief:
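THP-1 cells, serum-reduced (1% FBS) for 24 h, were preincubated with compound (10-point 1:3 series from 10 μM, 0.1% DMSO) for 2 h, then stimulated with 500 ng/mL LPS for 22 h at 37° C. IL-6 was read by HTRF (665/620 nm ratio) and normalized to DMSO. EC50 from four-parameter fit; % inhibition at 10 μM given if EC50 >10 μM.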
For orientation: TR-FRET usually uses a lanthanide donor and a delayed reading to cut background.

For `Cc1ccc(-c2nccc3[nH]c(-c4n[nH]c5ccc(C6=CCNCC6)nc45)nc23)s1` [Compound 730, 3-(4-(5-Methylthiophen-2-yl)-1H-imidazo[4,5-c]pyridin-2-yl)-5-(1,2,3,6-tetrahydropyridin-4-yl)-1H-pyrazolo[4,3-b]pyridine], the midpoint of the response in test [1], the EC50, lay at 6.17 µM. Besides, in test [2], the EC50 (as a rule, the concentration that produces a half-maximal response) was greater than 10 µM and the inhibition (in general, the change of the read-out against control, counted positive when it falls) at 10 µM is 29.5%.

In test [1], `Cc1ccc(-c2nccc3[nH]c(-c4n[nH]c5ccc(-c6cncc(OC7CCCCC7)c6)nc45)nc23)s1` [Compound 735, 5-(5-(Cyclohexyloxy)pyridin-3-yl)-3-(4-(5-methylthiophen-2-yl)-1H-imidazo[4,5-c]pyridin-2-yl)-1H-pyrazolo[4,3-b]pyridine] came in with a half-maximal effective concentration (EC50) of 0.958 µM. Moreover, in test [2], the EC50 was greater than 10 µM and the inhibition at 10 µM is 18.8%.

In the case of `Cn1cc(-c2ccc3[nH]nc(-c4nc5c(-c6cc(F)cc(CNS(C)(=O)=O)c6)nccc5[nH]4)c3n2)cn1` [Compound 764, N-(3-Fluoro-5-(2-(5-(1-methyl-1H-pyrazol-4-yl)-1H-pyrazolo [4,3-b]pyridin-3-yl)-1H-imidazo[4,5-c]pyridin-4-yl)benzyl)methanesulfonamide], a half-maximal response in test [1] (EC50) required 1.06 µM. Also, in test [2], the EC50 is greater than 10 µM and the inhibition at 10 µM was 0%.

The molecule `CS(=O)(=O)NCc1cc(F)cc(-c2nccc3[nH]c(-c4n[nH]c5ccc(-c6cncc(NC(=O)CC7CCNCC7)c6)nc45)nc23)c1` [Compound 769, N-(5-(3-(4-(3-Fluoro-5-(methylsulfonamidomethyl)phenyl)-1H-imidazo[4,5-c]pyridin-2-yl)-1H-pyrazolo[4,3-b]pyridin-5-yl)pyridin-3-yl)-2-(piperidin-4-yl)acetamide] registered an EC50 in test [1] of 5.05 µM. Besides, in test [2], the half-maximal effective concentration (EC50) was greater than 10 µM and the inhibition at 10 µM amounted to 33.4%.

`CN(C)CCNc1cc(F)cc(-c2nccc3[nH]c(-c4n[nH]c5ccc(-c6cncc(OCCN7CCCC7)c6)nc45)nc23)c1` [Compound 786, N^1-(3-Fluoro-5-(2-(5-(5-(2-(pyrrolidin-1-yl)ethoxy)pyridin-3-yl)-1H-pyrazolo[4,3-b]pyridin-3-yl)-1H-imidazo[4,5-c]pyridin-4-yl)-5phenyl)-N^2,N^2-dimethylethane-1,2-diamine]: in test [1], the EC50 was greater than 10 µM and the inhibition at 10 µM worked out at 0%. In test [2], this molecule displayed an EC50 of 7.22 µM.

Regarding `CN(C)CCNc1cc(F)cc(-c2nccc3[nH]c(-c4n[nH]c5ccc(-c6cnccn6)nc45)nc23)c1` [Compound 792, N^1-(3-Fluoro-5-(2-(5-(pyrazin-2-yl)-1H-pyrazolo[4,3-b]pyridin-3-yl)-1H-imidazo[4,5-c]pyridin-4-yl)phenyl)-N^2,N^2-dimethylethane-1,2-diamine], the EC50 in test [1] and in test [2] was greater than 10 µM throughout. Further, the results for the inhibition at 10 µM in test [1] and in test [2] were 0% and 32.6%, respectively.

For `CN(C)CC(=O)Nc1cncc(-c2ccc3[nH]nc(-c4nc5c(-c6cccc(F)c6)nccc5[nH]4)c3n2)c1` [Compound 969, 2-(Dimethylamino)-N-(5-(3-(4-(3-fluorophenyl)-1H-imidazo[4,5-c]pyridin-2-yl)-1H-pyrazolo[4,3-b]pyridin-5-yl)pyridin-3-yl)acetamide], the EC50 in test [1] came to 1.63 µM. Moreover, in test [2], the EC50 was greater than 10 µM and the inhibition at 10 µM came to 31.8%.

Turning to `COc1cccc(-c2nccc3[nH]c(-c4n[nH]c5ccc(-c6cccnc6)nc45)nc23)c1` [Compound 994, 3-(4-(3-Methoxyphenyl)-1H-imidazo[4,5-c]pyridin-2-yl)-5-(pyridin-3-yl)-1H-pyrazolo[4,3-b]pyridine], in test [1], the EC50 is 4.71 µM. Also, in test [2], the half-maximal effective concentration (EC50) is greater than 10 µM and the inhibition at 10 µM stood at 18.6%.

For `COc1cccc(-c2nccc3[nH]c(-c4n[nH]c5ccc(-c6cncc(NC(=O)Cc7ccccc7)c6)nc45)nc23)c1` [Compound 1000, N-(5-(3-(4-(3-methoxyphenyl)-1H-imidazo[4,5-c]pyridin-2-yl)-1H-pyrazolo [4,3-b]pyridin-5-yl)pyridin-3-yl)-2-phenylacetamide], the 50% effective concentration (EC50) was 2.55 µM in test [1] and greater than 10 µM in test [2]. The inhibition at 10 µM in test [2] is 11.4%.

For `COc1cccc(-c2nccc3[nH]c(-c4n[nH]c5ccc(-c6cncc(NC(=O)CC(C)(C)C)c6)nc45)nc23)c1` [Compound 1006, N-(5-(3-(4-(3-methoxyphenyl)-1H-imidazo[4,5-c]pyridin-2-yl)-1H-pyrazolo [4,3-b]pyridin-5-yl)pyridin-3-yl)-3,3-dimethylbutanamide], the concentration for a half-maximal effect (EC50) in test [1] was 2.5 µM; in test [2] it was greater than 10 µM. The inhibition at 10 µM in test [2] is 32.3%.

For `COc1cccc(-c2nccc3[nH]c(-c4n[nH]c5ccc(-c6cn[nH]c6)nc45)nc23)c1` [Compound 1020, 3-(4-(3-Methoxyphenyl)-1H-imidazo[4,5-c]pyridin-2-yl)-5-(1H-pyrazol-4-yl)-1H-pyrazolo[4,3-b]pyridine], the EC50 in test [1] and in test [2] was greater than 10 µM in each case. In addition, the inhibition at 10 µM in test [1] and in test [2] was 0% throughout.

Molecule `COc1cccc(-c2nccc3[nH]c(-c4n[nH]c5ccc(-c6cncc(OC7CCNCC7)c6)nc45)nc23)c1` [Compound 1025, 3-(4-(3-Methoxyphenyl)-1H-imidazo[4,5-c]pyridin-2-yl)-5-(5-(piperidin-4-yloxy)pyridin-3-yl)-1H-pyrazolo[4,3-b]pyridine] displayed an EC50 in test [1] of 3.33 µM. In test [2], the EC50 is greater than 10 µM and the inhibition at 10 µM came to 26.9%.

On to `COc1cccc(-c2nccc3[nH]c(-c4n[nH]c5ccc(-c6cncc(O)c6)nc45)nc23)c1` [Compound 1030, 5-(3-(4-(3-Methoxyphenyl)-1H-imidazo[4,5-c]pyridin-2-yl)-1H-pyrazolo [4,3-b]pyridin-5-yl)pyridin-3-ol], for which the EC50 in test [1] stood at 9.7 µM; in test [2] it was 0.493 µM.

Turning to `CC(C)CC(=O)Nc1cncc(-c2ccc3[nH]nc(-c4nc5c(-c6ccc(Cl)s6)nccc5[nH]4)c3n2)c1` [Compound 1037, N-(5-(3-(4-(5-Chlorothiophen-2-yl)-1H-imidazo[4,5-c]pyridin-2-yl)-1H-pyrazolo [4,3-b]pyridin-5-yl)pyridin-3-yl)-3-methylbutanamide], a half-maximal response in test [1] (EC50) required 0.776 µM. Also, in test [2], the EC50 was greater than 10 µM and the inhibition at 10 µM was 18.1%.

Consider `CC(C)(C)C(=O)Nc1cncc(-c2ccc3[nH]nc(-c4nc5c(-c6ccc(Cl)s6)nccc5[nH]4)c3n2)c1` [Compound 1043, N-(5-(3-(4-(5-Chlorothiophen-2-yl)-1H-imidazo[4,5-c]pyridin-2-yl)-1H-pyrazolo[4,3-b]pyridin-5-yl)pyridin-3-yl)pivalamide], for which, in test [1], the 50% effective concentration (EC50) is greater than 10 µM and the inhibition at 10 µM came out at 22%. For the same molecule, in test [2], the concentration for a half-maximal effect (EC50) was greater than 10 µM and the inhibition at 10 µM stood at 0%.

In turn, `Clc1ccc(-c2nccc3[nH]c(-c4n[nH]c5ccc(-c6cncc(CN7CCCC7)c6)nc45)nc23)s1` [Compound 1049, 3-(4-(5-Chlorothiophen-2-yl)-1H-imidazo[4,5-c]pyridin-2-yl)-5-(5-(pyrrolidin-1-ylmethyl)pyridin-3-yl)-1H-pyrazolo [4,3-b]pyridine] showed an EC50 in test [1] of 1.19 µM. Further, in test [2], the 50% effective concentration (EC50) was greater than 10 µM and the inhibition at 10 µM amounted to 13.2%.
